Experiment [1] deals with T1, Lectin (Burkholderia cenocepacia (strain ATCC BAA-245 / DSM 16553 / LMG 16656/ NCTC 13227 / J2315 / CF5610) (Burkholderia cepacia (strain J2315))) (UniProt B4EH87).
T1 sequence (whole entry): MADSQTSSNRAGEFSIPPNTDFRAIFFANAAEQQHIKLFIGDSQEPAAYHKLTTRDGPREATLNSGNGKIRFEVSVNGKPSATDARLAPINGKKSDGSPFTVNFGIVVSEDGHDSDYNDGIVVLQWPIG
Briefly: Displacement of N-(fluorescein-5-yl)-N'-(alpha-D-mannopyranosyloxyethyl)-thiocarbamide from Burkholderia cenocepacia J2315 BC2L-A expressed in Escherichia coli BL21 (DE3) cells up to 666 uM incubated for 3 to 4 hrs by fluorescence polarization assay relative to control. On the technique in general: In fluorescence polarisation assays a small probe gives low polarisation when free and higher when bound to something large.

For experiment [2], the target named is T2, Lectin (Burkholderia cenocepacia (strain ATCC BAA-245 / DSM 16553 / LMG 16656/ NCTC 13227 / J2315 / CF5610) (Burkholderia cepacia (strain J2315)), UniProt B4EH87).
T2 sequence (B4EH87 whole entry): T1 sequence (whole entry)
Briefly: Displacement of N-(fluorescein-5-yl)-N'-(alpha-D-mannopyranosyloxyethyl)-thiocarbamide from Burkholderia cenocepacia J2315 BC2L-A expressed in Escherichia coli BL21 (DE3) cells incubated for 3 to 4 hrs by fluorescence polarization assay.

Experiment [3] is described as follows: Displacement of N-(fluorescein-5-yl)-N'-(alpha-L-fucopyranosyl-O-ethyl)-thiocarbamide from Pseudomonas aeruginosa LecB expressed in Escherichia coli BL21 (DE3) cells up to 666 uM incubated for 6 hrs by fluorescence polarization assay.
The target in experiment [4] is T2, Lectin (Burkholderia cenocepacia (strain ATCC BAA-245 / DSM 16553 / LMG 16656/ NCTC 13227 / J2315 / CF5610) (Burkholderia cepacia (strain J2315)), UniProt B4EH87). Put plainly: Binding affinity to Burkholderia cenocepacia J2315 BC2L-A expressed in Escherichia coli BL21 (DE3) cells by microcalorimetry.
For experiment [5] the target is unchanged. Put plainly: Binding affinity to Burkholderia cenocepacia J2315 BC2L-A expressed in Escherichia coli BL21 (DE3) cells.
The target is the same in experiment [6]. Put plainly: Binding affinity to Burkholderia cenocepacia J2315 BC2L-A expressed in Escherichia coli BL21 (DE3) cells by isothermal titration calorimetry. (In general: Isothermal titration calorimetry measures the heat released or taken up as one component is titrated into another.)

Activity calls are given as the source filed them. The calls are words filed in the database; no cut-off is given here.

As to `CO[C@H]1O[C@H](CI)[C@@H](O)[C@H](O)[C@@H]1O`, the inhibition (in general, the share of the control response that was lost under treatment) in experiment [1] is “inactive”.

Consider `CO[C@H]1O[C@H]([C@@H](O)CNS(=O)(=O)c2ccc(C)cc2)[C@@H](O)[C@H](O)[C@@H]1O`, for which the IC50 – broadly, the midpoint of a concentration-inhibition curve – in experiment [2] was found to be 19.1 µM. This lies in the double-digit micromolar range. `CO[C@H]1O[C@@H](C)[C@@H](O)[C@@H](O)[C@@H]1O`: the inhibition result in experiment [1] is “inactive”.

`CO[C@H]1O[C@H]([C@H](O)CNC(=O)/C=C/c2ccccc2)[C@@H](O)[C@H](O)[C@@H]1O`: the inhibition entry in experiment [1] is “inactive”.

For `C[C@@H]1OC[C@@H](F)[C@H](O)[C@@H]1O`, the inhibition result in experiment [3] and in experiment [1] was “inactive” each time.

For `C[C@@H]1OC[C@@H](O)[C@H](O)[C@@H]1O`, the inhibition entry in experiment [1] is “inactive”. Regarding `CO[C@H]1O[C@H]([C@@H](O)CNC(C)=O)[C@@H](O)[C@H](O)[C@@H]1O`, in experiment [2], the IC50 is 116 µM.

In experiment [2], `Cc1cc(=O)oc2cc(O[C@H]3O[C@H](CO)[C@@H](O)[C@H](O)[C@@H]3O)ccc12` had an IC50 of 14.5 µM.

The molecule `C=CCO[C@H]1O[C@H](CO)[C@@H](O)[C@H](O)[C@@H]1O` had an IC50 in experiment [2] of 13.6 µM. Turning to `C[C@@H]1O[C@H](CO)[C@@H](O)[C@H](O)[C@@H]1O`, in experiment [2], the IC50 was 13 µM. With `C=CCO[C@H]1O[C@H](CO)[C@@H](O)[C@H](OC)[C@@H]1O`, in experiment [3], the inhibition result is “inactive”. In experiment [1], the inhibition was found to be 56%. In experiment [2], `CO[C@H]1O[C@H]([C@@H](O)CNC(=O)/C=C/c2ccccc2)[C@@H](O)[C@H](O)[C@@H]1O` yielded an IC50 of 64 µM. Turning to `OC[C@H]1OC(O)[C@@H](O)[C@@H](F)[C@@H]1O` (stereo not given in full), the inhibition result in experiment [3] and in experiment [1] was “inactive” throughout. As to `C=CCO[C@H]1O[C@H](CO)[C@@H](OC)[C@H](O)[C@@H]1O`, the inhibition entry in experiment [3] and in experiment [1] was “inactive” throughout. Regarding `CO[C@H]1O[C@H](CCl)[C@@H](O)[C@H](O)[C@@H]1O`, the inhibition entry in experiment [1] was “inactive”. `Cc1cc(=O)oc2cc(O[C@@H]3O[C@H](CO)[C@@H](O)[C@H](O)[C@@H]3O)ccc12`: the IC50 in experiment [2] amounted to 7.4 µM. Consider `CO[C@@H]1O[C@@H](C)[C@@H](O)[C@@H](O)[C@@H]1O`, for which the inhibition entry in experiment [1] is “inactive”. `CO[C@H]1O[C@H]([C@@H](O)CNS(=O)(=O)c2c(C)cc(C)cc2C)[C@@H](O)[C@H](O)[C@@H]1O` gave an IC50 in experiment [2] of 13.8 µM. `CO[C@H]1O[C@H](CO)[C@@H](O)[C@H](O)[C@@H]1O` showed an IC50 in experiment [2] of 7 µM. Moreover, the Kd (as a rule, the concentration at which binding is half-saturated) in experiment [4] came out at 2.7 µM. Molecule `OC[C@H]1OC[C@@H](O)[C@@H](O)[C@@H]1O` had an IC50 in experiment [2] of 2.9 µM. Take `C[C@H](O)[C@@H](O)[C@@H](O)[C@H](O)C=O` [L-FUCOSE]: the results for the half-maximal inhibitory concentration (IC50) in experiment [5] and in experiment [2] were 2300 µM and 498 µM, respectively. Consider `OC[C@H]1OC(O)[C@@H](F)[C@@H](O)[C@@H]1O` (stereo not given in full), for which the inhibition entry in experiment [3] and in experiment [1] was “inactive” each time. As for `CO[C@H]1O[C@H](CN)[C@@H](O)[C@H](O)[C@@H]1O`, the inhibition entry in experiment [1] is “inactive”. The same measure, in the same setting: then `CO[C@H]1O[C@H](CBr)[C@@H](O)[C@H](O)[C@@H]1O`, with “inactive”. In experiment [2], `CO[C@H]1O[C@H]([C@@H](O)CNC(=O)c2ccccc2)[C@@H](O)[C@H](O)[C@@H]1O` displayed an IC50 of 104 µM. Regarding `C[C@@H]1O[C@H](C)[C@@H](O)[C@H](O)[C@@H]1O`, the inhibition entry in experiment [1] was “inactive”. With `CO[C@H]1OC(C(O)CO)C(O)C(O)C1O` (stereo not given in full), binding in experiment [6] was put at a Kd of 54 µM. In the case of `CO[C@H]1O[C@H]([C@H](O)CNC(=O)c2ccccc2)[C@@H](O)[C@H](O)[C@@H]1O`, the inhibition result in experiment [1] is “inactive”.
